According to patent publication US6518243B1, “Desleucyl glycopeptide antibiotics and methods of making same” (Trustees of Princeton University, priority 1999, dated 2003):

Key:
S aureus ATCC 29213 = assay: MIC determination in BHI media, OD600; assay type: cell-based; settings: BHI + 0.1% casamino acids, 18 hours at 37° C., ≧90% OD600 inhibition
Outline: (§1)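 Turbidity after 18 hours at 37° C defined the MIC. Cultures in logarithmic growth were set to approximately 5×10^5 CFU/ml and challenged with DMSO-diluted compound series.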

S. Aureus ATCC 33591 = assay: MIC determination in BHI media, OD600; assay type: cell-based; settings: BHI + 0.1% casamino acids, 18 hours at 37° C., ≧90% OD600 inhibition
Outline: as §1

E. faecium ATCC 49624 = assay: MIC determination in BHI media, OD600; assay type: cell-based; settings: BHI + 0.1% casamino acids, 18 hours at 37° C., ≧90% OD600 inhibition
Outline: as §1

E. faecium CL 4931 = assay: MIC determination in BHI media, OD600; assay type: cell-based; settings: BHI + 0.1% casamino acids, 18 hours at 37° C., ≧90% OD600 inhibition
Outline: as §1

E. Faecalis CL 4877 = assay: MIC determination in BHI media, OD600; assay type: cell-based; settings: BHI + 0.1% casamino acids, 18 hours at 37° C., ≧90% OD600 inhibition
Outline: as §1

[1] = tested on: S. epidermidis (ATCC 12228); assay: Zone of inhibition screen, 96 well agar array format; assay type: cell-based; parameters: scale not given here; settings: zone of inhibition relative to 1 mg/ml stock solution of p-chlorobiphenylvancomycin
Outline: (§2)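 Read-out is antibacterial activity on agar laid out as a 96-well array; every compound went through all strains of the panel.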

E. faecalis (CL 4877) = assay: as above; assay type: cell-based; parameters: scale not given here; settings: zone of inhibition relative to 1 mg/ml stock solution of p-chlorobiphenylvancomycin
Outline: as §2

S. aureus (ATCC 29213) = assay: as above; assay type: cell-based; parameters: scale not given here; settings: zone of inhibition relative to 1 mg/ml stock solution of p-chlorobiphenylvancomycin
Outline: as §2

E. faceium (ATCC 49624) = assay: as above; assay type: cell-based, E. faecium; settings: zone of inhibition relative to 1 mg/ml stock solution of p-chlorobiphenylvancomycin
Outline: as §2
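Wherever zone score, E. faecium ATCC 49624 is given: score 3 means fourfold and score 4 sixteenfold the reference zone size.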

## CN[C@H](CC(C)C)C(=O)N[C@H]1C(=O)N[C@@H](CC(N)=O)C(=O)N[C@H]2C(=O)N[C@H]3C(=O)N[C@H](C(=O)N[C@H](C(=O)O)c4cc(O)cc(O)c4-c4cc3ccc4O)[C@H](O)c3ccc(c(Cl)c3)Oc3cc2cc(c3O[C@@H]2O[C@H](CO)[C@@H](O)[C@H](O)[C@H]2O[C@H]2C[C@](C)(N)[C@H](O)[C@H](C)O2)Oc2ccc(cc2Cl)[C@H]1O [Compound 0, Vancomycin, reference compound]
S aureus ATCC 29213
  MIC S. aureus ATCC 29213: 1.25 µg/mL
S. Aureus ATCC 33591
  MIC S. aureus ATCC 33591: 2.5 µg/mL
E. faecium ATCC 49624
  MIC E. faecium ATCC 49624: 1.25 µg/mL
E. faecium CL 4931
  MIC E. faecium CL 4931: > 250 µg/mL
E. Faecalis CL 4877
  MIC E. faecalis CL 4877: > 250 µg/mL

## C[C@H](O)C(=O)N[C@H]1C(=O)N[C@@H](CC(N)=O)C(=O)N[C@H]2C(=O)N[C@H]3C(=O)N[C@H](C(=O)N[C@@H](C(=O)O)c4cc(O)cc(O)c4-c4cc3ccc4O)[C@H](O)c3ccc(c(Cl)c3)Oc3cc2cc(c3O[C@@H]2O[C@H](CO)[C@@H](O)[C@H](O)[C@H]2O[C@@H]2C[C@@](C)(NCc3ccc(-c4ccc(Cl)cc4)cc3)[C@@H](O)[C@@H](C)O2)Oc2ccc(cc2Cl)[C@H]1O [Compound 21]
E. faecium CL 4931
  MIC E. faecium CL 4931: 25 µg/mL
E. Faecalis CL 4877
  MIC E. faecalis CL 4877: 25 µg/mL
[1]
  zone score, S. epidermidis ATCC 12228: 2
E. faecalis (CL 4877)
  zone score, E. faecalis CL 4877: 2
S. aureus (ATCC 29213)
  zone score, S. aureus ATCC 29213: 2

## C[C@H]1O[C@H](O[C@H]2[C@H](Oc3c4cc5cc3Oc3ccc(cc3Cl)[C@@H](O)[C@@H](NC(=O)[C@@H]3CC(OC(C)(C)C)CN3)C(=O)N[C@@H](CC(N)=O)C(=O)N[C@H]5C(=O)N[C@H]3C(=O)N[C@H](C(=O)N[C@@H](C(=O)O)c5cc(O)cc(O)c5-c5cc3ccc5O)[C@H](O)c3ccc(c(Cl)c3)O4)O[C@H](CO)[C@@H](O)[C@@H]2O)C[C@@](C)(NCc2ccc(-c3ccc(Cl)cc3)cc2)[C@H]1O (stereo partly shown) [Compound 30]
E. faceium (ATCC 49624)
  zone score, E. faecium ATCC 49624: 2
E. faecium ATCC 49624
  MIC E. faecium ATCC 49624: 0.78 µg/mL
E. faecium CL 4931
  MIC E. faecium CL 4931: 25 µg/mL
E. Faecalis CL 4877
  MIC E. faecalis CL 4877: 25 µg/mL

## CC1OC(OC2C(Oc3c4cc5cc3Oc3ccc(cc3Cl)C(O)C3NC(=O)C(NC(=O)C5NC(=O)C(CC(N)=O)NC(=O)C(NC(=O)C(N)CCCCNC=O)C(O)c5ccc(c(Cl)c5)O4)c4ccc(O)c(c4)-c4c(O)cc(O)cc4C(C(=O)O)NC3=O)OC(CO)C(O)C2O)CC(C)(NCc2ccc(-c3ccc(Cl)cc3)cc2)C1O (stereo not shown) [Compound 79]
E. faceium (ATCC 49624)
  zone score, E. faecium ATCC 49624: 2
E. faecium ATCC 49624
  MIC E. faecium ATCC 49624: 0.78 µg/mL
E. faecium CL 4931
  MIC E. faecium CL 4931: 25 µg/mL
E. Faecalis CL 4877
  MIC E. faecalis CL 4877: 25 µg/mL
S. aureus (ATCC 29213)
  zone score, S. aureus ATCC 29213: 2

## CC1OC(OC2C(Oc3c4cc5cc3Oc3ccc(cc3Cl)C(O)C3NC(=O)C(NC(=O)C5NC(=O)C(CC(N)=O)NC(=O)C(NC(=O)C(N)CO)C(O)c5ccc(c(Cl)c5)O4)c4ccc(O)c(c4)-c4c(O)cc(O)cc4C(C(=O)O)NC3=O)OC(CO)C(O)C2O)CC(C)(NCc2ccc(-c3ccc(Cl)cc3)cc2)C1O (stereo not shown) [Compound 88]
E. faceium (ATCC 49624)
  zone score, E. faecium ATCC 49624: 2
S aureus ATCC 29213
  MIC S. aureus ATCC 29213: 0.78 µg/mL
E. faecium ATCC 49624
  MIC E. faecium ATCC 49624: 0.78 µg/mL
E. Faecalis CL 4877
  MIC E. faecalis CL 4877: 25 µg/mL
[1]
  zone score, S. epidermidis ATCC 12228: 2
E. faecalis (CL 4877)
  zone score, E. faecalis CL 4877: 2
S. aureus (ATCC 29213)
  zone score, S. aureus ATCC 29213: 2

## CC1OC(OC2C(Oc3c4cc5cc3Oc3ccc(cc3Cl)C(O)C3NC(=O)C(NC(=O)C5NC(=O)C(CC(N)=O)NC(=O)C(NC(=O)CNC(=O)CNC(=O)c5ccc([N+](=O)[O-])cc5)C(O)c5ccc(c(Cl)c5)O4)c4ccc(O)c(c4)-c4c(O)cc(O)cc4C(C(=O)O)NC3=O)OC(CO)C(O)C2O)CC(C)(NCc2ccc(-c3ccc(Cl)cc3)cc2)C1O (stereo not shown) [Compound 108]
S aureus ATCC 29213
  MIC S. aureus ATCC 29213: 0.78 µg/mL
S. Aureus ATCC 33591
  MIC S. aureus ATCC 33591: 0.78 µg/mL
E. faecium CL 4931
  MIC E. faecium CL 4931: > 25 µg/mL
E. Faecalis CL 4877
  MIC E. faecalis CL 4877: > 25 µg/mL
S. aureus (ATCC 29213)
  zone score, S. aureus ATCC 29213: 2

## CC1OC(OC2C(Oc3c4cc5cc3Oc3ccc(cc3Cl)C(O)C3NC(=O)C(NC(=O)C5NC(=O)C(CC(N)=O)NC(=O)C(NC(=O)C(N)CSC(C)(C)C)C(O)c5ccc(c(Cl)c5)O4)c4ccc(O)c(c4)-c4c(O)cc(O)cc4C(C(=O)O)NC3=O)OC(CO)C(O)C2O)CC(C)(NCc2ccc(-c3ccc(Cl)cc3)cc2)C1O (stereo not shown) [Compound 333]
E. faecium CL 4931
  MIC E. faecium CL 4931: 25 µg/mL
E. Faecalis CL 4877
  MIC E. faecalis CL 4877: 25 µg/mL

## CC1OC(OC2C(Oc3c4cc5cc3Oc3ccc(cc3Cl)C(O)C3NC(=O)C(NC(=O)C5NC(=O)C(CC(N)=O)NC(=O)C(NC(=O)C(N)COCc5ccccc5)C(O)c5ccc(c(Cl)c5)O4)c4ccc(O)c(c4)-c4c(O)cc(O)cc4C(C(=O)O)NC3=O)OC(CO)C(O)C2O)CC(C)(NCc2ccc(-c3ccc(Cl)cc3)cc2)C1O (stereo not shown) [Compound 338]
S. Aureus ATCC 33591
  MIC S. aureus ATCC 33591: 0.39 µg/mL
E. faecium ATCC 49624
  MIC E. faecium ATCC 49624: 0.25 µg/mL
E. Faecalis CL 4877
  MIC E. faecalis CL 4877: 25 µg/mL

## CNC(C(=O)NC1C(=O)NC(CC(N)=O)C(=O)NC2C(=O)NC3C(=O)NC(C(=O)NC(C(=O)O)c4cc(O)cc(O)c4-c4cc3ccc4O)C(O)c3ccc(c(Cl)c3)Oc3cc2cc(c3OC2OC(CO)C(O)C(O)C2OC2CC(C)(NCc3ccc(-c4ccc(Cl)cc4)cc3)C(O)C(C)O2)Oc2ccc(cc2Cl)C1O)C(C)C (stereo not shown) [Compound 340]
S aureus ATCC 29213
  MIC S. aureus ATCC 29213: 0.39 µg/mL
S. Aureus ATCC 33591
  MIC S. aureus ATCC 33591: 0.39 µg/mL
E. faecium ATCC 49624
  MIC E. faecium ATCC 49624: 0.39 µg/mL
E. Faecalis CL 4877
  MIC E. faecalis CL 4877: 25 µg/mL

## CCCC(N)C(=O)NC1C(=O)NC(CC(N)=O)C(=O)NC2C(=O)NC3C(=O)NC(C(=O)NC(C(=O)O)c4cc(O)cc(O)c4-c4cc3ccc4O)C(O)c3ccc(c(Cl)c3)Oc3cc2cc(c3OC2OC(CO)C(O)C(O)C2OC2CC(C)(NCc3ccc(-c4ccc(Cl)cc4)cc3)C(O)C(C)O2)Oc2ccc(cc2Cl)C1O (stereo not shown) [Compound 341]
S aureus ATCC 29213
  MIC S. aureus ATCC 29213: 0.78 µg/mL
S. Aureus ATCC 33591
  MIC S. aureus ATCC 33591: 0.78 µg/mL
E. faecium ATCC 49624
  MIC E. faecium ATCC 49624: 0.78 µg/mL
E. Faecalis CL 4877
  MIC E. faecalis CL 4877: 25 µg/mL

## CN[C@H](CC(C)C)C(=O)N[C@H]1C(=O)N[C@@H](CC(N)=O)C(=O)N[C@H]2C(=O)N[C@H]3C(=O)N[C@H](C(=O)N[C@@H](C(=O)O)c4cc(O)cc(O)c4-c4cc3ccc4O)[C@H](O)c3ccc(c(Cl)c3)Oc3cc2cc(c3O[C@@H]2O[C@H](CI)[C@@H](O)[C@H](O)[C@H]2O[C@@H]2C[C@@](C)(NCc3ccc(-c4ccc(Cl)cc4)cc3)[C@@H](O)[C@@H](C)O2)Oc2ccc(cc2Cl)[C@H]1O [Compound 519]
E. faecium ATCC 49624
  MIC E. faecium ATCC 49624: 0.78 µg/mL
E. faecium CL 4931
  MIC E. faecium CL 4931: > 25 µg/mL
E. Faecalis CL 4877
  MIC E. faecalis CL 4877: > 25 µg/mL

## COCC(N)C(=O)NC1C(=O)NC(CC(N)=O)C(=O)NC2C(=O)NC3C(=O)NC(C(=O)NC(C(=O)O)c4cc(O)cc(O)c4-c4cc3ccc4O)C(O)c3ccc(c(Cl)c3)Oc3cc2cc(c3OC2OC(CO)C(O)C(O)C2OC2CC(C)(NCc3ccc(-c4ccc(Cl)cc4)cc3)C(O)C(C)O2)Oc2ccc(cc2Cl)C1O (stereo not shown) [Compound 525]
S aureus ATCC 29213
  MIC S. aureus ATCC 29213: 0.39 µg/mL
S. Aureus ATCC 33591
  MIC S. aureus ATCC 33591: 0.39 µg/mL
E. faecium ATCC 49624
  MIC E. faecium ATCC 49624: 0.25 µg/mL
E. faecium CL 4931
  MIC E. faecium CL 4931: 25 µg/mL
E. Faecalis CL 4877
  MIC E. faecalis CL 4877: 25 µg/mL

## CC1OC(OC2C(Oc3c4cc5cc3Oc3ccc(cc3Cl)C(O)C3NC(=O)C(NC(=O)C5NC(=O)C(CC(N)=O)NC(=O)C(NC(=O)C(N)Cc5c[nH]cn5)C(O)c5ccc(c(Cl)c5)O4)c4ccc(O)c(c4)-c4c(O)cc(O)cc4C(C(=O)O)NC3=O)OC(CO)C(O)C2O)CC(C)(NCc2ccc(-c3ccc(Cl)cc3)cc2)C1O (stereo not shown) [Compound 554]
S. Aureus ATCC 33591
  MIC S. aureus ATCC 33591: 0.78 µg/mL
E. faecium ATCC 49624
  MIC E. faecium ATCC 49624: 0.39 µg/mL
E. Faecalis CL 4877
  MIC E. faecalis CL 4877: 25 µg/mL

## CC1OC(OC2C(Oc3c4cc5cc3Oc3ccc(cc3Cl)C(O)C3NC(=O)C(NC(=O)C5NC(=O)C(CC(N)=O)NC(=O)C(NC(=O)C(N)Cc5ccc(O)c([N+](=O)[O-])c5)C(O)c5ccc(c(Cl)c5)O4)c4ccc(O)c(c4)-c4c(O)cc(O)cc4C(C(=O)O)NC3=O)OC(CO)C(O)C2O)CC(C)(NCc2ccc(-c3ccc(Cl)cc3)cc2)C1O (stereo not shown) [Compound 557]
E. faecium ATCC 49624
  MIC E. faecium ATCC 49624: 0.39 µg/mL
E. faecium CL 4931
  MIC E. faecium CL 4931: 25 µg/mL
E. Faecalis CL 4877
  MIC E. faecalis CL 4877: 25 µg/mL
